# Source: US4548944A, “Guanidino-heterocyclyl-phenyl-amidines and salts thereof” (Istituto de Angeli S.p.A., priority 1982, dated 1985)
# Assays:
# [1] = biological target: T1, histamine H2 -receptors (Cavia porcellus, UniProt P47747); assay: In vitro inhibition of histamine-induced tachycardia (positive chronotropic effect) in isolated guinea pig atria; details: Krebs-Henseleit pH 7.4, 32° C., histamine 10^-6 g/ml, 30 min contact
# T1 construct: isolated guinea pig atria suspended in an organ bath; from tissue; host or cells: isolated guinea pig atria
# Protocol: The myocardial preparation, loaded with 1 gm isometric tension, was allowed to stabilize 60 minutes, and myocardial contractions were recorded through an isometric lever connected to a strain-gauge coupler, and the instantaneous rate was monitored with a cardiotachometer and a heat-writing pen recorder. After two control responses to histamine (10^-6 g/ml) the test compound was added to the bath at the desired final concentration and left for 30 minutes before the atria were again challenged with histamine. The chronotropic obtained in the presence of the antagonist was then compared to the control response to histamine, and the percent reduction of the histamine H2 -evoked response was calculated. […] 3, Smooth muscle, Ed. Daniel, E. E. Paton, M., Plenum Press, New York (1975); Ash and Schild, Br. J.Pharmacol. Chemother. 27, 427-439, 1966.
# [2] = biological target: T2, histamine H2 -receptors (Rattus norvegicus, UniProt P25102); assay: In vivo antisecretory activity on histamine-induced gastric secretion of acid (stomach-perfused rat); details: iv, histamine 1 mg/kg/hr, values expressed as base, read-out: ED50, inhibition of histamine-induced gastric secretion
# T2 construct: intravenous or intraduodenal administration in stomach-perfused rats; from tissue; host or cells: stomach of the anesthetized living rat (in vivo)
# Excerpt: The ability of the test compounds to inhibit histamine-induced gastric secretion of acid was investigated after intravenous or intraduodenal administration in stomach-perfused rats, according to Gosh and Schild, Br. J. Pharmacol. Chemother. 13, 54, (1958).
# The preparation of the animals under general anesthesia (urethane, 1 g/kg i.p.) and constant temperature, was achieved by inserting and tying in place polyethyl tubes (PE 50) in the esophagus and in the pyloricantral region. After the stomach was washed to remove residual of foods, continuous perfusion of the stomach was started with saline, 0.5 ml/min. (37° C.), primed by a Jobling peristaltic pump. After 30 minutes of perfusion adaptation, the stomach perfusate was collected in 30 min. samples, and titrated for acid content, expressed as μEq of NaOH 1N. As control acid output became constant, intravenous perfusion of histamine (1 mg/kg/hr) was started and maintained throughout the experimental period. After the acid secretion had reached the steadily higher level, increasing doses of the test compounds were injected intravenously in order to obtain dose-response functions. The ED50 was then calculated by standard procedure.
# [3] = test system: Swiss mice; assay: Acute toxicity, single oral dose in Swiss mice; format: in vivo; details: 500 mg/kg, fasted 18 hours, mortality at 14 days, values expressed as base
# Protocol: The acute toxicity of the particularly preferred compounds of the formula I was approximately determined by oral administration of a single dose to groups of 5 Swiss mice, fasted for 18 hours before the test. The evaluation of the incidence of mortality was considered 14 days after the administration. The results are shown in the following table, in which the values are expressed taking the compound as a base.
# [4] = test system: H2 -receptor; details: in vitro, literature; cited from earlier work
# [5] = test system: gastric acid secretion; details: cited from earlier work; for inhibition of gastric acid secretion relative to cimetidine: in vivo, literature
# T2 sequence (P25102 whole entry, the tested form may be a part): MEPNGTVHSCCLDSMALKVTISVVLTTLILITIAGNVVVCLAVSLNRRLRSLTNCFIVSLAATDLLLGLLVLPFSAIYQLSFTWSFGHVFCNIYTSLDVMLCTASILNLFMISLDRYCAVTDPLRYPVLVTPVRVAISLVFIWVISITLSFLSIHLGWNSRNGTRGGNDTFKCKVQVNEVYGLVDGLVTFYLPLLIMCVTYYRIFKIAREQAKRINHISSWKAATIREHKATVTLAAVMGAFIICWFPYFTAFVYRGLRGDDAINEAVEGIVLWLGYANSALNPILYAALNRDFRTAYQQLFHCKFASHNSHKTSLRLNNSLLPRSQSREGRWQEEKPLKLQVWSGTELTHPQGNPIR
# T1 sequence (P47747 whole entry): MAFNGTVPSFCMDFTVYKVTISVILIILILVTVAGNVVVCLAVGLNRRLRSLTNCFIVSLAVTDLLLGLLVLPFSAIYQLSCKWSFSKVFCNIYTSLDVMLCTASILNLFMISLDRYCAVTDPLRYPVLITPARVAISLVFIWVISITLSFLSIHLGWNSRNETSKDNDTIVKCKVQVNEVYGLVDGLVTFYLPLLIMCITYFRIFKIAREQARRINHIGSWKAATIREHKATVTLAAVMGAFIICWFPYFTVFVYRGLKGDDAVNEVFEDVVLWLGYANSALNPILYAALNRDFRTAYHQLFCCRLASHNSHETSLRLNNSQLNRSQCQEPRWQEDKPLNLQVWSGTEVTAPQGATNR
SMILES,EC50 [1],ED50 [2],No. Dead/No. Treated Mice [3],H2 -receptor antagonist potency relative to cimetidine [4],inhibition of gastric acid secretion relative to cimetidine [5],effect on gastric acid secretion ([5]; literature (Black et al.))
"CCCCNC=Nc1cccc(-c2csc(N=C(N)N)n2)c1 [14(d), N-Butyl-N'-[3-(2-quanidino-4-thiazolyl)-phenyl]-formamidine]",0.55 µM,0.073 mg/kg,4/5,,,
"C#CCNC=Nc1cccc(-c2csc(NC(=N)N)n2)c1 [14(l), N-Propargyl-N'-[3-(2-guanidino-4-thiazolyl)-phenyl]-formamidine]",3.1 µM,0.074 mg/kg,0/5,,,
CNC(=C[N+](=O)[O-])NCCSCc1ccc(CN(C)C)o1 [ranitidine],,,,more potent than cimetidine,more potent than cimetidine,
"CC(C)CNC=Nc1cccc(-c2csc(NC(=N)N)n2)c1 [14(f), N-Isobutyl-N'-[3-(2-guanidino-4-thiazolyl)-phenyl]-formamidine]",1.2 µM,0.082 mg/kg,0/5,,,
"CCNC=Nc1cccc(-c2csc(NC(=N)N)n2)c1 [14(a), N-Ethyl-N'-[3-(2-guanidino-4-thiazolyl)phenyl]-formamidine]",0.53 µM,0.013 mg/kg,0/5,,,
"CCC(C)NC=Nc1cccc(-c2csc(NC(=N)N)n2)c1 (centres unmarked) [14(e), N-sec.Butyl-N'-[3-(2-guanidino-4-thiazolyl)-phenyl]-formamidine]",0.3 µM,0.041 mg/kg,0/5,,,
CNC(=NCCSCc1csc(N=C(N)N)n1)NC#N [tiotidine],,,,more potent than cimetidine,more potent than cimetidine,
"CN/C=N/c1cccc(-c2csc(N=C(N)N)n2)c1 [Example 14, N-Methyl-N'-[3-(2-guanidino-4-thiazolyl)-phenyl]-formamidine]",0.33 µM,0.02 mg/kg,0/5,,,
COc1ccc(CN(CCN(C)C)c2ccccn2)cc1 [mepyramine],,,,,,no effect on gastric acid secretion
"CC(C)NC=Nc1cccc(-c2csc(NC(=N)N)n2)c1 [14(c), N-Isopropyl-N'-[3-(2-guanidino-4-thiazolyl)-phenyl]-formamidine]",0.2 µM,0.035 mg/kg,1/5,,,
"CCCNC=Nc1cccc(-c2csc(NC(=N)N)n2)c1 [14(b), N-Propyl-N'-[3-(2-guanidino-4-thiazolyl)-phenyl]-formamidine]",0.28 µM,0.019 mg/kg,0/5,,,
"C=CCNC=Nc1cccc(-c2csc(NC(=N)N)n2)c1 [14(j), N-Allyl-N'-[3-(2-guanidino-4-thiazolyl)-phenyl]-formamidine]",0.33 µM,0.02 mg/kg,0/5,,,
"CCNC=Nc1cccc(-c2nsc(NC(=N)N)n2)c1 [14(ap), N-Ethyl-N'-[3-(5-guanidino-1,2,4-thiadiazol-3-yl)-phenyl]-formamidine]",0.45 µM,0.051 mg/kg,0/5,,,
"COCCNC=Nc1cccc(-c2csc(NC(=N)N)n2)c1 [14(p), N-(2-Methoxy-ethyl)-N'-[3-(2-guanidino-4-thiazolyl)-phenyl]-formamidine]",0.48 µM,0.05 mg/kg,0/5,,,
"N=C(N)Nc1nc(-c2cccc(N=CNCCCO)c2)cs1 [14(s), N-(3-Hydroxy-propyl)-N'-[3-(2-guanidino-4-thiazolyl)-phenyl]-formamidine]",0.27 µM,0.028 mg/kg,0/5,,,
